Results from PubChem BioAssay (NCI).
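Five compound concentrations were applied to cells in 96-well plates for 48 hours; endpoints were derived by simple linear interpolation of the resulting dose-response curve. The concentration for full growth arrest is given as TGI.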

How the values were obtained:
Assay in all cases: NCI tumour cell line growth inhibition, 48 h
786-0 renal = test system: 786-0 renal
A498 renal = test system: A498 renal
A549 NSCLC = test system: A549 NSCLC
ACHN renal = test system: ACHN renal
CAKI-1 renal = test system: CAKI-1 renal
CCRF-CEM leukemia = test system: CCRF-CEM leukemia
DLD-1 colon = test system: DLD-1 colon
DMS 114 small cell lung = test system: DMS 114 small cell lung
DMS 273 small cell lung = test system: DMS 273 small cell lung
EKVX NSCLC = test system: EKVX NSCLC
HL-60(TB) leukemia = test system: HL-60(TB) leukemia
HOP-62 NSCLC = test system: HOP-62 NSCLC
HOP-92 NSCLC = test system: HOP-92 NSCLC
HT29 colon = test system: HT29 colon
IGROV1 ovarian = test system: IGROV1 ovarian
K-562 leukemia = test system: K-562 leukemia
KM12 colon = test system: KM12 colon
KM20L2 colon = test system: KM20L2 colon
LOX IMVI melanoma = test system: LOX IMVI melanoma
LXFL 529 NSCLC = test system: LXFL 529 NSCLC
M14 melanoma = test system: M14 melanoma
M19-MEL melanoma = test system: M19-MEL melanoma
MALME-3M melanoma = test system: MALME-3M melanoma
MOLT-4 leukemia = test system: MOLT-4 leukemia
NCI-H226 lung = test system: NCI-H226 lung
NCI-H23 lung = test system: NCI-H23 lung
NCI-H460 lung = test system: NCI-H460 lung
NCI-H522 lung = test system: NCI-H522 lung
OVCAR-4 ovarian = test system: OVCAR-4 ovarian
OVCAR-5 ovarian = test system: OVCAR-5 ovarian
OVCAR-8 ovarian = test system: OVCAR-8 ovarian
RXF 393 renal = test system: RXF 393 renal
RXF-631 renal = test system: RXF-631 renal
SF-268 CNS = test system: SF-268 CNS
SF-295 CNS = test system: SF-295 CNS
SF-539 CNS = test system: SF-539 CNS
SK-MEL-2 melanoma = test system: SK-MEL-2 melanoma
SK-MEL-28 melanoma = test system: SK-MEL-28 melanoma
SK-MEL-5 melanoma = test system: SK-MEL-5 melanoma
SK-OV-3 ovarian = test system: SK-OV-3 ovarian
SN12C renal = test system: SN12C renal
SNB-19 CNS = test system: SNB-19 CNS
SNB-78 CNS = test system: SNB-78 CNS
SR leukemia = test system: SR leukemia
SW-620 colon = test system: SW-620 colon
TK-10 renal = test system: TK-10 renal
U251 CNS = test system: U251 CNS
UACC-257 melanoma = test system: UACC-257 melanoma
UACC-62 melanoma = test system: UACC-62 melanoma
UO-31 renal = test system: UO-31 renal
XF 498 CNS = test system: XF 498 CNS
COLO 205 colon = test system: COLO 205 colon
HCC-2998 colon = test system: HCC-2998 colon
HCT-116 colon = test system: HCT-116 colon
HCT-15 colon = test system: HCT-15 colon
RPMI-8226 leukemia = test system: RPMI-8226 leukemia
SNB-75 CNS = test system: SNB-75 CNS
OVCAR-3 ovarian = test system: OVCAR-3 ovarian

Measured: TGI

O=c1[nH]c(=O)n(C2CC(O)C(CO)O2)cc1/C=C/Br (configuration not stated)
not listed: COLO 205 colon | HCC-2998 colon | HCT-116 colon | HCT-15 colon | RPMI-8226 leukemia | SNB-75 CNS | OVCAR-3 ovarian
> 100 µM: all other assays above

CCOC(=O)c1ccc(O)cc1
not listed: A498 renal | LXFL 529 NSCLC | OVCAR-8 ovarian | SK-MEL-5 melanoma | SN12C renal | OVCAR-3 ovarian
> 100 µM: all other assays above

CCOC(=O)c1ccc(N=Cc2ccc(N(CCC#N)CCC#N)cc2)cc1
not listed: KM12 colon | SR leukemia | U251 CNS | HCC-2998 colon
> 100 µM: all other assays above
